Assay results: patent US11254686B1 (Corvus Pharmaceuticals, Inc., priority 2017, dated 2022)
Read-outs that look alike come from different tables or passages of the source.

How the values were obtained:
[1] = Hepatocyte (Hep) intrinsic clearance, human; type: in vitro ADME; details: hepatocytes
adenosine A2B receptor = adenosine A2B receptor (Homo sapiens (Human), UniProt P29275); test: Adenosine receptor activity assay (Table 1), A2B activity; type: biochemical; details: for IC50: read-out: Ave A2B cAMP IC50
adenosine A2A receptor = adenosine A2A receptor (Homo sapiens (Human), UniProt P29274); test: Adenosine receptor activity assay (Table 1), A2A activity; type: biochemical; details: read-out: Ave A2A cAMP IC50
adenosine A1 receptor [2] = target: T1, adenosine A1 receptor (Homo sapiens (Human), UniProt P30542); test: A1 cAMP IC50 assay (Table 1); type: biochemical
CYP3A4 = CYP3A4 (Homo sapiens (Human), UniProt P08684); test: CYP450 inhibition at 10 μM, CYP3A4; type: in vitro ADME; details: human, 10 μM, read-out: CYP 450 % INH @ 10 μM
[3] = Hepatocyte (Hep) intrinsic clearance, rat; type: in vitro ADME; details: hepatocytes
adenosine A3 receptor [4] = target: T2, adenosine A3 receptor (Homo sapiens (Human), UniProt P0DMS8); test: A3 cAMP IC50 assay (Table 1); type: biochemical
adenosine A3 receptor [5] = target: T2, adenosine A3 receptor; test: Adenosine receptor activity assay (Table 1), A3 cAMP; type: biochemical
adenosine A1 receptor [6] = target: T1, adenosine A1 receptor; test: Adenosine receptor activity assay (Table 1), A1 cAMP; type: biochemical
[7] = A2A activity to A2B activity (A2A/A2B)
[8] = A2A activity to the A2B activity, A2A/A2B

Chain of adenosine A2B receptor (P29275 whole entry): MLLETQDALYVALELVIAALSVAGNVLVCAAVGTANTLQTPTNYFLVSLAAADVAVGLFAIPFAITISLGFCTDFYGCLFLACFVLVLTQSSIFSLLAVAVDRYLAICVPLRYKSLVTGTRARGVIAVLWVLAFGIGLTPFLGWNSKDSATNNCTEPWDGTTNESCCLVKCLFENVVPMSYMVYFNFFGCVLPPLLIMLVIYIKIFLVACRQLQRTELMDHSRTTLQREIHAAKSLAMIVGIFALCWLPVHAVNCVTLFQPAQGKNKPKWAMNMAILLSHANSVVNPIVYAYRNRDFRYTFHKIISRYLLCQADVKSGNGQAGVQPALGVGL
Chain of adenosine A2A receptor (P29274 whole entry): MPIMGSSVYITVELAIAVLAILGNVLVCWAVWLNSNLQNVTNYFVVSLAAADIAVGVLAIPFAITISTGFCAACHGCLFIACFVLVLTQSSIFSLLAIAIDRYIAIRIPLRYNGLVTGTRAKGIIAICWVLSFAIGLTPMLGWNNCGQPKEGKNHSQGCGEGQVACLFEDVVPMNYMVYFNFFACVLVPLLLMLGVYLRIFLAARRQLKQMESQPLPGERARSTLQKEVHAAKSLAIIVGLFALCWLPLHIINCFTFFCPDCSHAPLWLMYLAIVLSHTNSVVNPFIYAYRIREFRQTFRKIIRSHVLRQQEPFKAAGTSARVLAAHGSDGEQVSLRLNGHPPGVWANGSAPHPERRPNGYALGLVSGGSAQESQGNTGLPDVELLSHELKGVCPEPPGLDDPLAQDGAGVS
T2 sequence (P0DMS8 whole entry): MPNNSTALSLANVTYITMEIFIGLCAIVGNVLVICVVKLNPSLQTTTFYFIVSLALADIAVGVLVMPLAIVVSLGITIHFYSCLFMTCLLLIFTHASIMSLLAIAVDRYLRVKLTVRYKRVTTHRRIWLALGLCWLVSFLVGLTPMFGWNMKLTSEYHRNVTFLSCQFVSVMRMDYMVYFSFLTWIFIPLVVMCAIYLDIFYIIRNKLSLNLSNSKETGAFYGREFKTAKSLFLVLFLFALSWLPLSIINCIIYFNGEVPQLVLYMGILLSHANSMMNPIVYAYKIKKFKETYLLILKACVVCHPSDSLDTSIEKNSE
Chain of CYP3A4 (P08684 whole entry): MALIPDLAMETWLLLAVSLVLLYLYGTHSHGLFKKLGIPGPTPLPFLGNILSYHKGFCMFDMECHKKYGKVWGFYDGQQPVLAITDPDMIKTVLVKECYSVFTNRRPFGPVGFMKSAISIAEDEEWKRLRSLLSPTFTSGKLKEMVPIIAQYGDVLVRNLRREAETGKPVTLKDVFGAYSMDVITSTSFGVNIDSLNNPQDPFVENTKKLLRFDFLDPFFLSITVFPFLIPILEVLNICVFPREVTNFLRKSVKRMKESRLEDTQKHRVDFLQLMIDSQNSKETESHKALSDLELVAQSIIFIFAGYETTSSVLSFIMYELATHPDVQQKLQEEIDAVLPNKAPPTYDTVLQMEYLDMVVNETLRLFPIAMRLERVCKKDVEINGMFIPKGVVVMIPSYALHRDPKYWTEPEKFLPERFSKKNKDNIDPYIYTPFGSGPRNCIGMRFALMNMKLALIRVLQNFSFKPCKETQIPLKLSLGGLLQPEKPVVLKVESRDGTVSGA
T1 sequence (P30542 whole entry): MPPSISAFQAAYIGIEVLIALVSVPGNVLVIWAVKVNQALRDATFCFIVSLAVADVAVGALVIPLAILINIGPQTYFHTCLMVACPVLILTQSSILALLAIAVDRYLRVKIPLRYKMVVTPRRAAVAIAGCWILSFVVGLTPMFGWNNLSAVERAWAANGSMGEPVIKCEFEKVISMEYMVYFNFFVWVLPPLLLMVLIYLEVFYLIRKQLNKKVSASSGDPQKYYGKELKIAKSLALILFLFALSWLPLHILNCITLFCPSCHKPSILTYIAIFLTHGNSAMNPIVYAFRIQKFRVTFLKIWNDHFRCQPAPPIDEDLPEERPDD

| Compound | hepatocyte CLint [1] | Ratio (adenosine A2B receptor; [7]) | IC50 (adenosine A2B receptor) | IC50 (adenosine A2A receptor) | IC50 (adenosine A1 receptor [2]) | inhibition at 10 µM (CYP3A4) | hepatocyte CLint [3] | IC50 (adenosine A3 receptor [4]) | Ratio (adenosine A2B receptor; [8]) | IC50 (adenosine A2B receptor; cAMP) | IC50 (adenosine A3 receptor [5]) | IC50 (adenosine A2A receptor; cAMP) | IC50 (adenosine A1 receptor [6]) |
| --- | --- | --- | --- | --- | --- | --- | --- | --- | --- | --- | --- | --- | --- |
| C[C@@H]1CCN(C(=O)c2nc(N[C@@H](C)c3ccccn3)nc3ccsc23)C1 [Example Z86, ((R)-3-Methylpyrrolidin-1-yl)(2-(((S)-1-(pyridin-2-yl)ethyl)amino)thieno[3,2-d]pyrimidin-4-yl)methanone] | 11.8 µL/min/1e6 cells | 4.25 | 10 to 50 nM | 50 to 100 nM | > 500 nM | 19% | 55.1 µL/min/1e6 cells | > 500 nM | – | – | – | – | – |
| C[C@H]1CCN(C(=O)c2nc(N[C@@H](C)c3ccccn3)nc3ccsc23)C1 [Example Z87, ((S)-3-Methylpyrrolidin-1-yl)(2-(((S)-1-(pyridin-2-yl)ethyl)amino)thieno[3,2-d]pyrimidin-4-yl)methanone] | 13.3 µL/min/1e6 cells | 11.70 | 10 to 50 nM | 100 to 500 nM | > 500 nM | 19.9% | 57.6 µL/min/1e6 cells | > 500 nM | – | – | – | – | – |
| C[C@H](Nc1nc(C(=O)N2CCC2)c2sccc2n1)c1ccccn1 [Example Z90, (S)-Azetidin-1-yl(2-((1-(pyridin-2-yl)ethyl)amino)thieno[3,2-d]pyrimidin-4-yl)methanone] | 6.32 µL/min/1e6 cells | 18.88 | < 10 nM | 50 to 100 nM | > 500 nM | 0% | 33.3 µL/min/1e6 cells | > 500 nM | – | – | – | – | – |
| Cc1ncccc1CNc1nc(C(=O)N2CCCC2)c2sccc2n1 [Example Z91, (2-(((2-Methylpyridin-3-yl)methyl)amino)thieno[3,2-d]pyrimidin-4-yl)(pyrrolidin-1-yl)methanone] | 7.19 µL/min/1e6 cells | 16.69 | 10 to 50 nM | 100 to 500 nM | – | 19% | 47.1 µL/min/1e6 cells | – | – | – | – | – | – |
| C[C@H](Nc1nc(C(=O)N2CC(F)(F)C2)c2sccc2n1)c1ccccn1 [Example Z92, (S)-(3,3-Difluoroazetidin-1-yl)(2-((1-(pyridin-2-yl)ethyl)amino)thieno[3,2-d]pyrimidin-4-yl)methanone] | 45.2 µL/min/1e6 cells | 10.92 | 10 to 50 nM | 100 to 500 nM | > 500 nM | 0% | 46.5 µL/min/1e6 cells | > 500 nM | – | – | – | – | – |
| C[C@H](Nc1nc(C(=O)N2CCC(F)(F)C2)c2sccc2n1)c1ccccn1 [Example Z96, (S)-(3,3-Difluoropyrrolidin-1-yl)(2-((1-(pyridin-2-yl)ethyl)amino)thieno[3,2-d]pyrimidin-4-yl)methanone] | 16.8 µL/min/1e6 cells | 5.59 | 10 to 50 nM | 100 to 500 nM | > 500 nM | 0% | 40.7 µL/min/1e6 cells | > 500 nM | – | – | – | – | – |
| O=C(c1nc(NCc2cncc(F)c2)nc2ccsc12)N1CC(F)(F)C1 [Example Z97, (3,3-Difluoroazetidin-1-yl)(2-(((5-fluoropyridin-3-yl)methyl)amino)thieno[3,2-d]pyrimidin-4-yl)methanone] | 41.3 µL/min/1e6 cells | 30.97 | 10 to 50 nM | > 500 nM | > 500 nM | 53.8% | 61.4 µL/min/1e6 cells | > 500 nM | – | – | – | – | – |
| O=C(c1nc(NCc2cncc(F)c2)nc2ccsc12)N1CC[C@H](F)C1 [Example Z99, (S)-(2-(((5-Fluoropyridin-3-yl)methyl)amino)thieno[3,2-d]pyrimidin-4-yl)(3-fluoropyrrolidin-1-yl)methanone] | 21.1 µL/min/1e6 cells | 37.02 | 10 to 50 nM | > 500 nM | > 500 nM | 48.9% | 65.3 µL/min/1e6 cells | > 500 nM | – | – | – | – | – |
| C[C@H](Nc1nc(C(=O)N2CC(O)C2)c2sccc2n1)c1ccccn1 [Example Z100, (S)-(3-Hydroxyazetidin-1-yl)(2-((1-(pyridin-2-yl)ethyl)amino)thieno[3,2-d]pyrimidin-4-yl)methanone] | 1.89 µL/min/1e6 cells | 11.09 | 10 to 50 nM | 100 to 500 nM | > 500 nM | 7.65% | 22.2 µL/min/1e6 cells | > 500 nM | – | – | – | – | – |
| C[C@H](Nc1nc(C(=O)N2CCOC2)c2sccc2n1)c1ccccn1 [Example Z105, (S)-Oxazolidin-3-yl(2-((1-(pyridin-2-yl)ethyl)amino)thieno[3,2-d]pyrimidin-4-yl)methanone] | 58.9 µL/min/1e6 cells | 19.04 | < 10 nM | 100 to 500 nM | > 500 nM | 1.91% | 27.7 µL/min/1e6 cells | > 500 nM | – | – | – | – | – |
| COC1CN(C(=O)c2nc(N[C@@H](C)c3ccccn3)nc3ccsc23)C1 [Example Z108, (S)-(3-Methoxyazetidin-1-yl)(2-((1-(pyridin-2-yl)ethyl)amino)thieno[3,2-d]pyrimidin-4-yl)methanone] | 5.66 µL/min/1e6 cells | 10.93 | 10 to 50 nM | – | > 500 nM | 31% | 23.4 µL/min/1e6 cells | > 500 nM | – | – | – | – | – |
| O=C(c1nc(NCc2cccc(Cl)c2)nc2ccsc12)N1CCC1 [Example Z121, Azetidin-1-yl(2-((3-chlorobenzyl)amino)thieno[3,2-d]pyrimidin-4-yl)methanone] | 85.1 µL/min/1e6 cells | – | 10 to 50 nM | 100 to 500 nM | – | 48.6% | 249 µL/min/1e6 cells | – | – | – | – | – | – |
| O=C(c1nc(NCc2cccc(Cl)c2)nc2ccsc12)N1CC(O)C1 [Example Z122, (2-((3-Chlorobenzyl)amino)thieno[3,2-d]pyrimidin-4-yl)(3-hydroxyazetidin-1-yl)methanone] | 68.4 µL/min/1e6 cells | – | 10 to 50 nM | 100 to 500 nM | – | 22.9% | 112 µL/min/1e6 cells | – | – | – | – | – | – |
| C[C@H](Nc1nc(C(=O)N2CC(NC(=O)C(C)(C)C)C2)c2sccc2n1)c1cncc(Cl)c1 [Example Z642, (S)—N-(1-(2-((1-(5-Chloropyridin-3-yl)ethyl)amino)thieno[3,2-d]pyrimidine-4-carbonyl)azetidin-3-yl)pivalamide] | – | – | – | – | – | – | – | – | 0.57 | 10 to 50 nM | 100 to 500 nM | < 10 nM | > 500 nM |
| C[C@H](Nc1nc(C(=O)N2CC(NC(=O)C3(C(F)(F)F)CCC3)C2)c2sccc2n1)c1cncc(F)c1 [Example Z643, (S)—N-(1-(2-((1-(5-Fluoropyridin-3-yl)ethyl)amino)thieno[3,2-d]pyrimidine-4-carbonyl)azetidin-3-yl)-1-(trifluoromethyl)cyclobutane-1-carboxamide] | – | – | – | – | – | – | – | – | 0.19 | 10 to 50 nM | 100 to 500 nM | < 10 nM | > 500 nM |
| C[C@H](Nc1nc(C(=O)N2CC(NC(=O)C3(C)CCC3)C2)c2sccc2n1)c1cncc(Cl)c1 [Example Z644, (S)—N-(1-(2-((1-(5-Chloropyridin-3-yl)ethyl)amino)thieno[3,2-d]pyrimidine-4-carbonyl)azetidin-3-yl)-1-methylcyclobutane-1-carboxamide] | – | – | – | – | – | – | – | – | 0.59 | 10 to 50 nM | 100 to 500 nM | < 10 nM | > 500 nM |
| C[C@H](Nc1nc(C(=O)N2CC(NC(=O)c3ccc(-c4ccccc4)cc3)C2)c2sccc2n1)c1cncc(F)c1 [Example Z645, (S)—N-(1-(2-((1-(5-Fluoropyridin-3-yl)ethyl)amino)thieno[3,2-d]pyrimidine-4-carbonyl)azetidin-3-yl)-[1,1′-biphenyl]-4-carboxamide] | – | – | – | – | – | – | – | – | 0.48 | 50 to 100 nM | 50 to 100 nM | 10 to 50 nM | > 500 nM |
| Cc1cc(C)cc(C(=O)NC2CN(C(=O)c3nc(N[C@@H](C)c4cncc(F)c4)nc4ccsc34)C2)c1 [Example Z646, (S)—N-(1-(2-((1-(5-Fluoropyridin-3-yl)ethyl)amino)thieno[3,2-d]pyrimidine-4-carbonyl)azetidin-3-yl)-3,5-dimethylbenzamide] | – | – | – | – | – | – | – | – | 0.65 | 10 to 50 nM | 100 to 500 nM | 10 to 50 nM | > 500 nM |
| Cc1cc(C(=O)NC2CN(C(=O)c3nc(N[C@@H](C)c4cncc(F)c4)nc4ccsc34)C2)c(C)o1 [Example Z647, (S)—N-(1-(2-((1-(5-Fluoropyridin-3-yl)ethyl)amino)thieno[3,2-d]pyrimidine-4-carbonyl)azetidin-3-yl)-2,5-dimethylfuran-3-carboxamide] | – | – | – | – | – | – | – | – | 1.16 | 10 to 50 nM | 100 to 500 nM | 10 to 50 nM | > 500 nM |
| (S)—N-(1-(2-((1-(5-Fluoropyridin-3-yl)ethyl)amino)-7-methylthieno[3,2-d]pyrimidine-4-carbonyl)azetidin-3-yl)pivalamide [Example Z624] | – | – | – | – | – | – | – | – | 0.18 | 10 to 50 nM | 100 to 500 nM | < 10 nM | > 500 nM |
| N-(tert-Butoxy)-1-(2-(((S)-1-(5-fluoropyridin-3-yl)ethyl)amino)-6-methylthieno[3,2-d]pyrimidine-4-carbonyl)pyrrolidine-3-carboxamide [Example Z602] | – | – | – | – | – | – | – | – | 0.49 | 10 to 50 nM | 100 to 500 nM | < 10 nM | > 500 nM |
